Measurements as given in patent US20140155445A1, “Compounds and Methods for Treating Cancer and Diseases of the Central Nervous System” (Osta Biotechnologies Inc., priority 2007, published 2014).
Structures can show the parent of a compound that is named as a salt. Where two headings read alike, the source gives them in different places.

Assays:
HO-1 (rat spleen) = biological target: T1, HO-1 (rat spleen) (Rattus norvegicus, UniProt P06762); assay: HO enzymatic activity in rat spleen microsomal fraction (CO formed from methemalbumin, gas chromatography); assay type: biochemical
T1 construct: Spleen microsomes were used as a source of HO-1; from tissue; host or cells: spleen microsomal fraction of adult male Sprague-Dawley rats
T1 sequence (P06762 1-289): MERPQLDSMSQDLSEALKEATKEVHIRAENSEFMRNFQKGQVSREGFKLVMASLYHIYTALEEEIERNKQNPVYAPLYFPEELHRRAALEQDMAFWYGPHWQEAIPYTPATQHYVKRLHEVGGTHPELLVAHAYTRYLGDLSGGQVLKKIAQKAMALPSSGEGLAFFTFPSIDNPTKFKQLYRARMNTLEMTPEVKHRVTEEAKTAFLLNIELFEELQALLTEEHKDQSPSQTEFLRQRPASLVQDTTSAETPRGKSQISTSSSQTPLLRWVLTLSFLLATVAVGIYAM
Description: (§1) Incubations for HO activity analysis were done under conditions for which the rate of CO formation (pmol CO×min^−1×mg protein^−1) was linear with respect to time and microsomal protein concentration. Briefly, reaction mixtures (150 μL) consisting of 100 mM phosphate buffer (pH 7.4), 50 μM methemalbumin, and 1 mg/mL protein were pre-incubated with the inhibitors at final concentrations ranging from 0.1-100 μM for 10 minutes at 37° C. Reactions were initiated by adding NADPH at a final concentration of 1 mM and incubations were performed for an additional 15 minutes at 37° C.
(§2) Incubations for HO activity analysis were done under conditions for which the rate of CO formation (pmol CO/mg protein/minute) was linear with respect to time and microsomal protein concentration. Briefly, reaction mixtures (150 μL) consisting of 100 mM phosphate buffer (pH 7.4), 50 μM methemalbumin and 1 mg/mL protein were pre-incubated with the vehicle (ethanol or water in which the inhibitors were dissolved), or inhibitors at final concentrations ranging from 0.1-1000 μM for 10 minutes at 37° C. Reactions were initiated by adding β-NADPH at a final concentration of 1 mM and incubations were carried out for an additional 15 minutes at 37° C. Reactions were stopped by instantly freezing the reaction mixture on pulverized dry ice and CO formation was measured by gas chromatography using a TA 3000R Process Gas Analyzer (Trace Analytical/Ametek, Newark, Del., USA).
(§3) The values on the abscissa represent the decimal logarithm of the inhibitor's concentration (in μM), whereas the values of the activity on the ordinate are expressed as a percentage of the control experiments without inhibitor.
(§4) The IC50 values for the replicate experiments were employed to generate the reported standard deviation value.

HO-2 (rat brain) = biological target: T2, HO-2 (rat brain) (Rattus norvegicus, UniProt P23711); assay: HO enzymatic activity in rat brain microsomal fraction (CO formed from methemalbumin, gas chromatography); assay type: biochemical
T2 construct: brain microsomes were used as a source of HO-2; from tissue; host or cells: brain microsomal fraction of adult male Sprague-Dawley rats
T2 sequence (P23711 1-315): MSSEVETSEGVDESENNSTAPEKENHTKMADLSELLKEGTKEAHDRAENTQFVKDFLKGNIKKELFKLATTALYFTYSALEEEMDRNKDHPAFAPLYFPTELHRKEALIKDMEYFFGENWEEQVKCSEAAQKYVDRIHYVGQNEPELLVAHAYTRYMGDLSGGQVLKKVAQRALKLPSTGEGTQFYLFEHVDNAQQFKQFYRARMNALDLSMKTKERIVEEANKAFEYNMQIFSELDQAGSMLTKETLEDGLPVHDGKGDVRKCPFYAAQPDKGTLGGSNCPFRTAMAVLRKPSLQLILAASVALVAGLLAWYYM
Description: as §1, §2, §3, §4

[1] = rat spleen microsomes, average ± standard deviation of replicate experiments, read-out: IC50 HO-1 (rat spleen)/μM
[2] = rat brain microsomes, average ± standard deviation of replicate experiments, read-out: IC50 HO-2 (rat brain)/μM

SMILES | IC50 (HO-1 (rat spleen); [1]) [µM] | IC50 (HO-2 (rat brain); [2]) [µM] | further results
Nc1ccccc1SC[C@@H]1CO[C@](CCc2ccc(Cl)cc2)(Cn2ccnc2)O1 [(2S,4S)-2-[2-(4-chlorophenyl)ethyl]-2-[(1H-imidazol-1-yl)methyl]-4-[{(2-aminophenyl)thio}meth-yl]-1,3-dioxolane dihydrochloride] | 5 ± 0.3 |  | 
O=C(Cn1cncn1)c1ccc(Br)cc1 [1-(4-Bromo-phenyl)-2-[1,2,4]triazol-1-yl-ethanone] | 2.7 ± 0.5 | 50 ± 24 | 
COc1ccc(CCN2CCC(Nc3nc4ccccc4n3Cc3ccccc3)CC2)cc1 | > 100 | 60 ± 18 | 
O=C(CCc1ccc(Cl)cc1)Cn1ccnc1 [4-(4-chlorophenyl)-1-(1H-imidazol-1-yl)butan-2-one hydrochloride] | 4.7 ± 0.5 |  | 
Clc1ccc(C(Cn2ccnc2)NCc2ccccc2)cc1 (racemic) [(±)-benzyl-[1-(4-chloro-phenyl)-2-imidazol-1-yl-ethyl]amine dihydrochloride] | 3.39 ± 0.08 | 22 ± 4 | 
O=C(CCc1ccc(F)cc1)Cn1ccnc1 [4-(4-fluorophenyl)-1-(1H-imidazol-1-yl)butan-2-one hydrochloride] | 2.7 ± 0.9 |  | 
O=C(/C(=N/O)n1ccnc1)c1ccc(Cl)cc1 | 103 ± 2 | 103 ± 41 | 
O=C(Cn1cnnc1)c1ccc(Cl)cc1 | > 100 | > 100 | 
O=C(Cn1cncn1)c1ccc(Cl)c(Cl)c1 [1-(3,4-Dichloro-phenyl)-2-[1,2,4]triazol-1-yl-ethanone hydrochloride] | 1.3 ± 0.5 | > 100 | 
c1ccc2[nH]cnc2c1 [Benzimidazole, reference compound] | > 100 | > 100 | 
Nc1ccccc1SC[C@H]1CO[C@@](CCc2ccc(Cl)cc2)(Cn2ccnc2)O1 [(2R,4R)-2-[2-(4-chlorophenyl)ethyl]-2-[(1H-imidazol-1-yl)methyl]-4-[{(2-aminophenyl)thio}meth-yl]-1,3-dioxolane dihydrochloride] |  | > 100 | 
Nc1ccc(SC[C@@H]2CO[C@](CCc3ccc(Cl)cc3)(Cn3ccnc3)O2)cc1 [(2S,4S)-2-[2-(4-chlorophenyl)ethyl]-2-[(1H-imidazol-1-yl)methyl]-4-[{(4-aminophenyl)thio}meth-yl]-1,3-dioxolane dihydrochloride] |  |  | IC50 (HO-1 (rat spleen)): 5 ± 2 µM
CC(C)(C(=O)c1ccccc1)n1ccnc1 [2-Imidazol-1-yl-2-methyl-1-phenyl-propan-1-one] |  | > 100 | 
O=C(CCc1ccc(Br)cc1)Cn1cncn1 [4-(4-bromophenyl)-1-[1,2,4]triazol-1-yl-butan-2-one hydrochloride] | 0.39 ± 0.02 |  | 
Ic1ccc(CCC2(Cn3ccnc3)OCCO2)cc1 [2-[2-(4-iodophenyl)ethyl]-2-[(1H-imidazol-1-yl)methyl]-1,3-dioxolane hydrochloride] |  | > 100 | 
Nc1ccc(SC[C@H]2CO[C@@](CCc3ccc(Cl)cc3)(Cn3ccnc3)O2)cc1 [(2R,4R)-2-[2-(4-chlorophenyl)ethyl]-2-[(1H-imidazol-1-yl)methyl]-4-[{(4-aminophenyl)thio}meth-yl]-1,3-dioxolane dihydrochloride] |  |  | IC50 (HO-2 (rat brain)): > 100 µM
Nc1cccc(SC[C@H]2CO[C@@](CCc3ccc(Cl)cc3)(Cn3ccnc3)O2)c1 [(2R,4R)-2-[2-(4-chlorophenyl)ethyl]-2-[(1H-imidazol-1-yl)methyl]-4-[{(3-aminophenyl)thio}meth-yl]-1,3-dioxolane dihydrochloride] |  |  | IC50 (HO-2 (rat brain)): > 100 µM
O=C(CCc1ccc(Br)cc1)Cn1ccnc1 [4-(4-bromophenyl)-1-(1H-imidazol-1-yl)butan-2-one hydrochloride] | 1.7 ± 0.7 |  | 
O=C(CCc1ccccc1)Cn1cccn1 [4-phenyl-1-pyrazol-1-yl-butan-2-one hydrochloride] |  | > 100 | 
O=C(Cn1ccnc1)c1ccc(Cl)c(Cl)c1 [1-(3,4-Dichloro-phenyl)-2-imidazol-1-yl-ethanone] | 1.24 ± 0.07 |  | 
OC(Cn1cncn1)(Cn1cncn1)c1ccc(F)cc1F [Fluconazole, reference compound] | 80 ± 6 |  | 

Continued, in another order:

IC50 (HO-1 (rat spleen); [1]) [µM] | IC50 (HO-2 (rat brain); [2]) [µM] | SMILES | further results
4 ± 1 | 6.7 ± 0.3 | O=C(Cn1ccnc1)c1ccc2c(c1)CCCC2 [2-imidazol-1-yl-1-(5,6,7,8-tetrahydro-naphthalen-2-yl)-ethanone hydrochloride] | 
3.5 ± 0.2 | 22 ± 8 | Clc1ccc(CC[C@@]2(Cn3ccnc3)OCC(COc3ccc(Br)cc3)O2)cc1 (stereo in doubt) [(2R,4S)-1-{4-(4-bromo-phenoxymethyl)-2-[2-(4-chloro-phenyl)-ethyl]-[1,3]dioxolan-2-ylmethyl}-1H-imidazole hydrochloride] | 
> 100 | > 100 | O=C(CCc1ccccc1)Cn1nnc(-c2ccccc2)n1 [4-Phenyl-1-(5-phenyl-tetrazol-2-yl)-butan-2-one] | 
> 100 |  | CC(=O)C(Cc1ccccc1)n1cncn1 (racemic) [(±)-4-phenyl-3-[1,2,4]triazol-1-yl-butan-2-one] | IC50 HO-2 (rat brain)/μM (HO-2 (rat brain); rat brain microsomes, average ± standard deviation of replicate experiments): INACTIVE
1.59 ± 0.03 | 7 ± 2 | Oc1ccc(SC[C@@H]2CO[C@@](CCc3ccc(Cl)cc3)(Cn3ccnc3)O2)cc1 [(2R,4S)-2-[2-(4-chlorophenyl)ethyl]-2-[(1H-imidazol-1-yl)methyl]-4-[{(4-hydroxyphenyl)thio}methyl]-1,3-dioxolane] | 
2 ± 1 |  | Clc1ccc(CC[C@@]2(Cn3ccnc3)OCC(COc3ccc(-c4ccccc4)cc3)O2)cc1 (stereo in doubt) [(2R,4S)-1-{4-(biphenyl-4-yloxymethyl)-2-[2-(4-chloro-phenyl)-ethyl]-[1,3]dioxolan-2-ylmethyl}-1H-imidazole hydrochloride] | 
69 ± 19 |  | COC(=O)c1cncn1CC(=O)CCc1ccccc1 [3-(2-Oxo-4-phenyl-butyl)-3H-imidazole-4-carboxylic acid methyl ester] | 
39 ± 13 |  | COc1ccc(C(=O)Cn2ccnc2)cc1 [2-Imidazol-1-yl-1-(4-methoxy-phenyl)-ethanone hydrochloride] | 
 | 30 ± 4 | O=C(CCc1ccccc1)Cn1cnnn1 [4-Phenyl-1-tetrazol-1-yl-butan-2-one hydrochloride] | 
2.2 ± 0.1 |  | O=C(Cn1ccnc1)c1cccc2ccccc12 [2-imidazol-1-yl-1-naphthalen-1-yl-ethanone hydrochloride] | 
 | > 100 | Fc1ccc(CCC2(Cn3ccnc3)OCCO2)cc1 [2-[2-(4-fluorophenyl)ethyl]-2-[(1H-imidazol-1-yl)methyl]-1,3-dioxolane hydrochloride] | 
 | 30 ± 5 | COc1ccc(CCN2CCC(Nc3nc4ccccc4n3Cc3ccc(F)cc3)CC2)cc1 [Astemizole, reference compound] | 
 | > 100 | O=C(CCc1ccccc1)Cn1ccnn1 [4-phenyl-1-(1H-[1,2,3]triazol-1-yl)butan-2-one] | 
22.6 ± 0.8 |  | O=C(/C=C/c1ccccc1)CCn1ccnc1 [5-(1H-Imidazol-1-yl)-1-phenyl-pent-1-en-3-one hydrochloride] | 
 | > 100 | O=C(CCc1ccccc1)Cn1nccn1 [4-phenyl-1-[1,2,3]triazol-2-yl-butan-2-one] | 
 | > 100 | Brc1ccc(C2(Cn3cncn3)OCCO2)cc1 [1-[2-(4-bromo-phenyl)-[1,3]dioxolan-2-ylmethyl]-1H-[1,2,4]triazole] | 
1.4 ± 1.1 |  | OC(CCc1ccc(F)cc1)Cn1ccnc1 (centres unmarked) [4-(4-fluorophenyl)-1-(1H-imidazol-1-yl)butan-2-ol hydrochloride] | 
7 ± 1 |  | O=C(Cn1ccnc1)C12CC3CC(CC(C3)C1)C2 [1-(adamantan-1-yl)-2-imidazol-1-yl-ethanone hydrochloride] | 
> 100 |  | CC(=O)CCc1ccc(Br)cc1 [4-(4-bromophenyl)butan-2-one] | 
0.14 ± 0.06 |  | OC(CCc1ccc(Br)cc1)Cn1ccnc1 (racemic) [(±)-4-(4-bromophenyl)-1-(1H-imidazol-1-yl)butan-2-ol hydrochloride] | 
